These results are taken from US11578081B1, “Crystal form as inhibitor of ACC1 and ACC2, and preparation method therefor and use thereof” (ZHANGZHOU PIEN TZE HUANG PHARMACEUTICAL CO., LTD., priority 2019, dated 2023).

Series [1] in a line: Pharmacokinetic evaluation in C57BL/6 mice. In kind it is in vivo. The following applies: mouse, plasma, male C57BL/6 mice. The procedure:
To test the pharmacokinetics of the compound in C57BL/6 mice Experimental materials:
C57BL/6 mice (male, 18 to 30 g, 7 to 9 weeks old, Shanghai Lingchang Biotechnology Co., Ltd.)
A clear solution of a test compound (0.5 mg/ml, 10% DMSO, 10% polyethylene glycol stearate, and 80% water) was injected via tail veins into 4 male C57BL/6 mice (overnight fasting, 7 to 9 weeks old), at a dose of 2.0 mg/kg. A suspension of the test compound or the clear solution thereof (1 mg/ml, 10% PEG400, 90% (0.5% methylcellulose+0.2% Tween 80)) was administered by gavage to 4 male C57BL/6 mice (overnight fasting, 7 to 9 weeks old), at a dose of 10 mg/kg.
Two mice were set in a group and subjected to blood sampling alternatively, with 4 to 5 blood sampling time points per mouse. At 0.0833 h (IV group only), 0.25 h, 0.5 h, 1.0 h, 2.0 h, 4.0 h, 6.0 h, 8.0 h, and 24 h after the mice were administered intravenously or by gavage, about 30 μL of blood was collected by saphenous vein puncture and placed in an anticoagulation tube supplemented with EDTA-K2, and the plasma was separated by centrifugation. The LC-MS/MS method was used to determine the blood drug concentration, and the WinNonlin™ Version 6.3 (Pharsight, Mountain View, Calif.) pharmacokinetic software was used to calculate the relevant pharmacokinetic parameters by the non-compartmental model linear logarithmic trapezoidal method.

Series [2] deals with human acetyl-CoA carboxylase 1 (hACC1) (Homo sapiens, UniProt Q13085). In words: In vitro ACC enzyme inhibition (ADP fluorescence), hACC1. It counts as biochemical. The following applies: pre-incubated 15 minutes, 1 hour at room temperature. The procedure: (§1) To evaluate the ability of a test compound to inhibit acetyl-CoA carboxylase (ACC) by determining the IC50 value.
(§2) 1. Proteins: human acetyl-CoA carboxylase 1 (hACC1) and human acetyl-CoA carboxylase 2 (hACC2).
(§3) 3. Cofactors: acetyl-CoA and ATP (adenosine triphosphate)
(§4) 4. Activator: potassium citrate
(§5) 1. One-fold enzyme/substrate/cofactor was added to microwells of a well plate.
(§6) 2. According to an Acoustic technique, a solution of a compound in DMSO was added to the enzyme mixture, and the resulting mixture was pre-incubated for 15 minutes.
(§7) 3. ATP was added thereto to initiate the reaction, and the mixture was shaken uniformly.
(§8) 4. The mixture was incubated for 1 hour at room temperature.
(§9) 5. The reaction was quenched, and then incubated for additional 40 minutes.
(§10) 6. A detection reagent was added and the resulting mixture was incubated for 30 minutes.
(§11) 7. Fluorescence was tested.
(§12) 8. Data analysis was performed: based on the standard curve of ADP, the fluorescence signal was converted to the ADP product concentration and the enzyme activity was calculated. The curve was fitted using Graphpad Prism software to obtain the IC50 value.

Series [3] deals with human acetyl-CoA carboxylase 2 (hACC2) (Homo sapiens, UniProt O00763). As to the kind of experiment: In vitro ACC enzyme inhibition (ADP fluorescence), hACC2. As to conditions: pre-incubated 15 minutes, 1 hour at room temperature. It counts as biochemical. As to the method:
as §1, §2, §3, §4, §5, §6, §7, §8, §9, §10, §11, §12

For series [4], the system named is HFD+CCl4-induced NASH mouse model. In words: In vivo pharmacodynamic study in HFD+CCl4-induced NASH mouse model. As to conditions: HFD+CCl4 mice; 0.5, 1, 3 mg/kg by gavage QD day 0 to day 27; reference I-181 3 mg/kg. The source says: To study the effect of a compound on improving NASH and liver fibrosis in an HFD+CCl4 mouse model, with I-181 as a reference compound.
I-181 is an acetyl-CoA carboxylase inhibitor and is currently undergoing a phase II clinical study on non-alcoholic fatty liver disease (NAFLD). The HFD+CCl4 mouse model used in this study is an animal model that simulates human non-alcoholic fatty liver disease evolving into NASH. High-fat diet leads to fat accumulation and steatosis in liver cells; CCl4 (intraperitoneal injection, twice a week) simulates the “second hit” of liver injury.
The modeling for this experiment included two steps: high-fat diet feeding and CCl4 induction. Firstly, the mice were fed with high-fat diet to induce non-alcoholic fatty liver, and the mice weighing more than (>) 38 g were selected and continuously fed with high-fat diet, accompanied by the intraperitoneal injection of 25% CCl4 ([…], twice a week, for a total of four weeks). The day of starting CCl4 administration was set as day 0, and the time of starting CCl4 administration was set as hour 0. On the day of starting CCl4 administration, the administration by gavage was started, and the administration volume of each group was 5 mL/kg, once a day for 4 weeks (28 days). The injection time of CCl4 should be more than 4 hours apart from the first administration time point of the day. […]

Series [5] in a line: Physical stability test of crystal form A as a solid under temperature, humidity and light (XRPD). It counts as physicochemical. The following applies: 60° C. and 92.5% RH for 5 and 10 days; ICH visible and UV light; 60° C./75% RH 1 and 2 months; 40° C./75% RH 1, 2 and 3 months. As to the method: In order to evaluate the solid stability of a crystal form A, the influencing factors (high temperature, high humidity and light), accelerated stability conditions and intermediate stability conditions were investigated for the crystal form A.
The crystal form A was placed under high temperature (60° C., closed dish) and high humidity (room temperature, 92.5% RH (relative humidity), wrapped in a parafilm with 5 to 10 small holes) for 5 days and 10 days. According to ICH conditions (visible illuminance reached 1.2E06 Lux·hrs, and ultraviolet illuminance reached 200 W·hrs/m^2), the crystal form A was placed under visible light and ultraviolet light (the shading control group was wrapped in tin foil) in closed dish, and meanwhile, the crystal form A was placed under accelerated stability conditions (60° C./75% RH, wrapped in a parafilm with 5 to 10 small holes) for 1 and 2 months, and under intermediate stability conditions (40° C./75% RH, wrapped in a parafilm with 5 to 10 small holes) for 1, 2 and 3 months. The samples after placement were characterized by XRPD to detect the change of the crystal form.

Chain of human acetyl-CoA carboxylase 2 (hACC2) (O00763 whole entry): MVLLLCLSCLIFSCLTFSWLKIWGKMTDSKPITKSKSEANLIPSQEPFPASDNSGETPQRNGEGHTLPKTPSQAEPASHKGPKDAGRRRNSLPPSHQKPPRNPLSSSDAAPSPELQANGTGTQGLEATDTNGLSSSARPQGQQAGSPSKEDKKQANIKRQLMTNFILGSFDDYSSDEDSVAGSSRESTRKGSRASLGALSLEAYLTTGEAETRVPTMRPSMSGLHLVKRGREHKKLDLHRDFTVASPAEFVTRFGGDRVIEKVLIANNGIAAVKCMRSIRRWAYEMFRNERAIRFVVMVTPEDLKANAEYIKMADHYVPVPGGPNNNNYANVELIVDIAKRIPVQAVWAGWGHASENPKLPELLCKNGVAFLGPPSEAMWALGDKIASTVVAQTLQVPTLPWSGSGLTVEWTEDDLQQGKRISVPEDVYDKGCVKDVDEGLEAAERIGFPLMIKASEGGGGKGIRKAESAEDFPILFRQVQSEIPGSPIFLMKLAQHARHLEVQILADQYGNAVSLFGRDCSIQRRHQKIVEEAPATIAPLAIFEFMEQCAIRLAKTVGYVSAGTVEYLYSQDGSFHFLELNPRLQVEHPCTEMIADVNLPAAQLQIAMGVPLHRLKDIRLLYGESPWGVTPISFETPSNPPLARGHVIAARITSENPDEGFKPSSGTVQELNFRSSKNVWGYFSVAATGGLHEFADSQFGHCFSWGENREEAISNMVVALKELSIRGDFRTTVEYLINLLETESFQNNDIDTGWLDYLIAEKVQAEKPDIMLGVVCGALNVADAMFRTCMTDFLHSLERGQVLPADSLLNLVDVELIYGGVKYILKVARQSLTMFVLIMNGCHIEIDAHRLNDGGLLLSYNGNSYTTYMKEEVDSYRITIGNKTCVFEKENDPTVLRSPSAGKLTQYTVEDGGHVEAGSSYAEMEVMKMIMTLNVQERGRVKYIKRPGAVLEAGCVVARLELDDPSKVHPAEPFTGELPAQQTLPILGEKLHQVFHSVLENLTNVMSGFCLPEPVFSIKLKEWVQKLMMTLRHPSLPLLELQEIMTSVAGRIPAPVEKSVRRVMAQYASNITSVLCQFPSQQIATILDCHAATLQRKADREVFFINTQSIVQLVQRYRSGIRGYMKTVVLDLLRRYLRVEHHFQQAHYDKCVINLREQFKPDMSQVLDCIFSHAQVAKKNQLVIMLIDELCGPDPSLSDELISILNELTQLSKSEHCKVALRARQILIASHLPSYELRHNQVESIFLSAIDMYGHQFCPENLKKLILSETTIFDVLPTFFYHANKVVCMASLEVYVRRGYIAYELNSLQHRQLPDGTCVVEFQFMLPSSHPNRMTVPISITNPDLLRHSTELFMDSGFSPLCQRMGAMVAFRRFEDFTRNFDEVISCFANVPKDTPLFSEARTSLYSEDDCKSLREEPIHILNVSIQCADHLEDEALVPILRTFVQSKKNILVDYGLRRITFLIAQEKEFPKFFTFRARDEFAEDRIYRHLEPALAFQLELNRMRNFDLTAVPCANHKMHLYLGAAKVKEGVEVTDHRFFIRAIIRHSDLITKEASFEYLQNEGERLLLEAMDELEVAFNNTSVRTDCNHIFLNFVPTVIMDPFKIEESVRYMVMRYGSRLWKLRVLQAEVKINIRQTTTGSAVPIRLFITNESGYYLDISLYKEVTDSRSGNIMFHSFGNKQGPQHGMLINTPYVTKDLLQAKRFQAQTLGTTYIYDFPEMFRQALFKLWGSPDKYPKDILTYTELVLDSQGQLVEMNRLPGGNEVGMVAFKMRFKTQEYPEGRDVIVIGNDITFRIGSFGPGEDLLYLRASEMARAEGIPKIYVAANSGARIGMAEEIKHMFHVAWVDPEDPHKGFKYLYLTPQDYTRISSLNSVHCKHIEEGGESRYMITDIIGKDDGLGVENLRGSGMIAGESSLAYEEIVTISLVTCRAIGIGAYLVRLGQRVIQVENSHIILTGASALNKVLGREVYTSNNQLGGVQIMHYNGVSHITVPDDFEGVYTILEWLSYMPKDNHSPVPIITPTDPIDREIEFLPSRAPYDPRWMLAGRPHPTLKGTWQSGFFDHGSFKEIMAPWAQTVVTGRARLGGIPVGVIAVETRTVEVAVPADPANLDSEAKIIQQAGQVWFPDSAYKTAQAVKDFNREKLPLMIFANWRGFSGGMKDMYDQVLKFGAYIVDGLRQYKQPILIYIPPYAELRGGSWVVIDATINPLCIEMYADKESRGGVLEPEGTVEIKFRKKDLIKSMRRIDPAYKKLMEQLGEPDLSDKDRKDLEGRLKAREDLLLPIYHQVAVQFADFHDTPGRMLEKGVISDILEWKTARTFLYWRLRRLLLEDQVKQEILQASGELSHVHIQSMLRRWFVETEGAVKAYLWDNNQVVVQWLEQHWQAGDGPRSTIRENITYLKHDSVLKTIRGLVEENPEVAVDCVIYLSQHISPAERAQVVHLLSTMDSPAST

Turning to `COc1ccccc1[C@H](Cn1nc(C(C)(C)C(=O)O)c(=O)c2c(C)c(-c3ncco3)sc21)OC1CCOCC1` [Compound of formula (I)], in series [1] (po, gavage 10 mg/kg vs IV 2.0 mg/kg, read-out: Bioavailability F), the bioavailability (usually dose-corrected exposure relative to a reference, in per cent) was 66.7%. Moreover, the clearance in series [1] (IV 2.0 mg/kg and gavage 10 mg/kg study, route per parameter not given, read-out: Clearance rate) amounted to 27.3 mL/min/kg. Also, the AUC in series [1] (IV 2.0 mg/kg and gavage 10 mg/kg study, route per parameter not given, read-out: Concentration integral AUC) came to 7.21 µM·h. Further, the half-life in series [1] (IV 2.0 mg/kg and gavage 10 mg/kg study, route per parameter not given, read-out: Half-life T1/2 (converted)) was 111 min. For the same compound, the IC50 – broadly, the midpoint of a concentration-inhibition curve – in series [2] was 14.1 nM; in series [3], 10.3 nM. The “Efficacy on NAS versus reference compound” value in series [4] was “achieves the same efficacy as the reference compound at a higher dose”. For the same compound, the “Efficacy on fibrosis versus reference compound” value in series [4] is reported as “achieves the same efficacy as the reference compound at a higher dose”.

As for `COc1ccccc1[C@H](Cn1nc(C(C)(C)C(=O)O)c(=O)c2c(C)c(-c3ncco3)sc21)OC1CCOCC1` [crystal form A], the “Change of the crystal form (XRPD) after placement” value in series [5] is given as “remains unchanged under all stability conditions”.
